One data set deals with blood pressure. The following applies: 30 mg/kg single oral dose, rodent hypertension models; cited from earlier work.
The subject of another data set is WNK1 (P-OXSR1). In words: Western blot of Oxsr1 and P-Oxsr1 in MA9 cells. It is filed as cell-based, mouse. The following applies: MA9 cells treated for 3 hours. The protocol: Murine MLL-AF9 transformed leukemic cells (MA9) were treated for 3 hours with different concentrations of “Compound 12”. Treated cells were counted and lysed in 1×LSB buffer and an equal to 100.000 cells were loaded on each lane of a 10% SDS-Page gel.
Gels were transferred to nitrocellulose membranes probed with sheep-anti-OXSR1 [S336B] or sheep-anti-P-OXSR1 [S688B] (both from University of Dundee). Binding of the primary antibody was on detected light sensitive films, using rabbit peroxidase conjugated anti-sheep IgG antibody (1 in 30.000 dilution, Abcam: ab6900) followed by enhanced chemiluminescence (Pierce ECL Plus, ThermoFisher: 34577) (FIG. 4B).

The next data set deals with MEFs. In words: CellTiter-Glo viability assay, mouse embryonic fibroblasts. The class given is cell-based. The protocol: (§1) Dose-response curves were generated using the CellTiter-Glo® assay (Promega: G7570). Cells were seeded in triplicate in round bottom 96 well plates in the presence of varying concentrations of “Compound 12”. After 72 hours the number of viable cells in the cultures were measured using the CellTiter-Glo®. IC50 values were calculated using the Prism software (GraphPad: Prism 7 for Mac OS X).

Data set [1] relates to MA9 cells. Briefly: CellTiter-Glo viability assay, MA9 cells. The following applies: Mus musculus, 72 hours. It is filed as cell-based. As for the experimental part:
as §1

In data set [2] the test system is MLL-AF9 translocated leukemia. Briefly: In vivo treatment of leukemic mice (MA9 transplanted). The arrangement: species or system mouse. The note with it: daily injection of 1.8 mg in sun flower oil, mice transplanted with MA9 cells. The protocol: 1×10^4 leukemic cells were injected into the tail vein of sub-lethally irradiated (450 rad) BL6.SJL mice. Two days after transplantation the mice were injected with 1.8 mg “Compound 12” dissolved into 200 μL sun flower oil or sun flower oil alone (control). A total of 26 mice were used in the experiment, where 14 received oil alone and 12 received “Compound 12”.
The injections were continued daily for a period of 20 days.

In the next data set the test system is phosphorylated OXSR1. The following applies: in cells, Yamada et al., 2017; cited from earlier work.
Data set [3] concerns MA9 cells. Briefly: Growth curves of MA9 cells. It is filed as cell-based, mouse. The following applies: varying concentrations, growth curve, FIG. 4C. The protocol:
MA9 cell cultures were grown in triplicate in 24 well plates in the presence of varying concentrations of “Compound 12”. Cells were plated with a density of 50.000 cells per well after which they were counted and replated every 3 days.

For data set [4] the following is noted: Yamada et al., 2017; cited from earlier work.
The conditions of data set [5]: 30 mg/kg single oral dose; cited from earlier work.
The next data set deals with blood cancer cell lines. Briefly: CellTiter-Glo viability assay, human cell lines. It is filed as cell-based. The note with it: FIG. 5. The protocol: Dose-response curves were generated using the CellTiter-Glo® assay (Promega: G7570). BJ-tert, U2OS, MOLM13, THP1, Monomac, MMS1, KMS18, KMS11, MSTo, and H226, cells were seeded in triplicate in round bottom 96 well plates in the presence of varying concentrations of “Compound 12”. After 72 hours the number of viable cells in the cultures were measured using the CellTiter-Glo®. IC50 values were calculated using the Prism software (GraphPad: Prism 7 for Mac OS X). The experiment show the IC50 values for the different human cell lines (FIG. 5).

This is an account of results in US12458637B2, “Targeting WNK1 in blood cancers” (Københavns Universitet, priority 2019, dated 2025).

Structures are written as SMILES. pEC50, pIC50: −log10 of the molar value. Entries after “also recorded” stand apart in the source; their conditions may differ.

Consider `[2H]C([2H])([2H])Nc1nc(-c2cc(C(=O)N3CCN(Cc4ccc(Cl)cc4)CC3)c(Cl)cn2)cs1` [Compound 12, (5-Chloro-2-(2-((methyl-d3)amino)thiazol-4-yl)-pyridin-4-yl)(4-(4-chlorobenzyl)piperazin-1-yl)methanone], for which the Blood pressure entry in the data set on blood pressure is “some reduction in blood pressure”. Moreover, the “Inhibition of WNK1 (phosphorylated OXSR1, Western blot)” value with WNK1 (P-OXSR1) is reported as “inhibits WNK1 in leukemic cells”. Moreover, the pIC50 with MEFs (Mus musculus, Fibroblast, viability, 72 hours, CellTiter-Glo) was under 4.70; in the data set with MA9 cells [1], about 6.00; with blood cancer cell lines (viability, 72 hours, human cell lines, read-out: IC50 of most of the blood cancer cell lines), about 6.00. The “IC50 in MEFs compared with MA9 cells” value with MEFs (viability assay, FIG. 4A) is “significantly higher”. For the same compound, the “Lifespan of leukemic mice” value in [2] was “significantly extend the life-time; also recorded: increases their lifespan; also recorded: increased lifespan”. Besides, the pEC50 with phosphorylated OXSR1 was 6.23. In addition, in the data set on MA9 cells [3], the “Growth / proliferation of MA9 cells” value is recorded as “dose-dependent inhibition; also recorded: inhibits growth; also recorded: attenuated growth”. Also, in [4], the Toxicity in mice entry was “low toxicity”. For the same compound, the Concentration in data set [5] was 2000 nM. Further, the “Sensitivity of blood cancer cell lines compared with diploid fibroblasts” value in the data set with blood cancer cell lines (human cell lines vs BJ tert) is reported as “significantly more sensitive”.
